# “And” between values parts separate entries of the source, which are not always exact repeats. Identical values can stand only once.
# Assays:
# [1] = test system: HEK293 (human embryonic kidney) cells expressing the viral Orf10 protein; assay type: cell-based
# [2] = test system: HEK293 (human embryonic kidney) cells expressing the viral Orf8 protein; assay type: cell-based
# [3] = test system: HEK293 (human embryonic kidney) cells expressing the viral M protein; assay: BrdU incorporation colorimetric ELISA, cells expressing viral M protein; assay type: cell-based; conditions: 1 μM, 24 hours, not normalized to cell number (FIG. 5)
# [4] = test system: HEK293 (human embryonic kidney) cells transfected with control plasmid pCMV-3Tag-3A; assay: Apoptosis assay (pSIVA early, propidium iodide late), control plasmid; assay type: cell-based; conditions: 24 hours, normalized to crystal violet
# Text: (§1) 2. […] These transfections are done in duplicate.
# [5] = test system: HEK293 (human embryonic kidney) cells transfected with plasmid expressing viral protein ORF8; assay: Apoptosis assay (pSIVA early, propidium iodide late), ORF8; assay type: cell-based; conditions: ORF8, 24 hours
# Text: as §1
# [6] = test system: HEK293 (human embryonic kidney) cells transfected with plasmid expressing M protein; assay: Apoptosis assay (pSIVA early, propidium iodide late), M protein; assay type: cell-based
# Text: as §1
# [7] = test system: interferon and interferon-induced antiviral effector gene expression in cells expressing M-protein; assay: qPCR of interferons and effector gene expression, M-protein; assay type: cell-based, human
# Type I interferons = assay: Interferon types after CBD treatment, summary over transfections; assay type: cell-based, human; conditions: summary statement, transfection not specified
# [8] = test system: metabolically dysregulated cells; assay: Inhouse work on cell death, metabolically dysregulated cells (unpublished data); assay type: cell-based
# normal cells = assay: Inhouse work on cell death, normal cells (unpublished data); assay type: cell-based
# HT22 hippocampal neurons = conditions: 5 μM CBD, oxygen-glucose deprivation; cited from earlier work
# CB2 receptor = CB2 receptor (Homo sapiens, UniProt P34972); conditions: cited from earlier work
# Chain of CB2 receptor (P34972 whole entry): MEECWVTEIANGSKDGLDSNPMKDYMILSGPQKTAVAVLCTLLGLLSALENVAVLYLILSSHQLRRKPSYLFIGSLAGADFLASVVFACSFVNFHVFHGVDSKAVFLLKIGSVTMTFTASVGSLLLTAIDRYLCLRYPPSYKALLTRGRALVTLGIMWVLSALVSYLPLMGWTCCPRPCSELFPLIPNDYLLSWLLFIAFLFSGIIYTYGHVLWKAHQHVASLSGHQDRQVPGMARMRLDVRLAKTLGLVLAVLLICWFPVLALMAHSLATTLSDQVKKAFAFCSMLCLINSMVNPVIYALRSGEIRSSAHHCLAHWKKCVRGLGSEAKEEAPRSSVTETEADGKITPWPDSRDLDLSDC
# [9] = test system: TNFα, IL-6, IL-4, IL-13, IL-10, and IL-5; conditions: asthma induced animals treated with Cannabidiol vs asthma induced animals; cited from earlier work
smiles,measurement,setting,value
CCCc1cc(O)c2c(c1)OC(C)(C)[C@@H]1CC=C(C)C[C@@H]21 [delta 8-tetrahydrocannabivarin],BrdU incorporation relative to untreated cells,[1],less reduction
"C=C(C)[C@@H]1CCC(C)=C[C@H]1c1c(O)cc(CCCCC)cc1O [Cannabidiol, 2-[(1R,6R)-3-Methyl-6-(1-methylethenyl)-2-cyclohexen-1-yl]-5-pentyl-1,3-benzenediol]",mean BrdU incorporation lower than in cells expressing Orf8 but untreated with cannabinoids,[2],37.28% and 43.52%
same,mean BrdU incorporation lower than in cells expressing Orf10 but untreated with cannabinoids,[1],30.44%
same,mean BrdU incorporation lower than in cells expressing M protein but untreated with cannabinoids,[3],37.28%
same,early apoptosis (pSIVA),[4],do not show any significant increase
same,late apoptosis (propidium iodide),[4],do not show any significant increase
same,early apoptosis (pSIVA),[4]; listed as CBD,did not alter
same,late apoptosis (propidium iodide),[4]; listed as CBD,did not alter
same,early apoptosis (pSIVA),[5]; vs vehicle-treated ORF8 cells and vs Cannabidiol-treated control vector cells (FIG. 8A),significant increases
same,late apoptosis (propidium iodide),[5]; vs vehicle-treated ORF8 cells and vs Cannabidiol-treated control vector cells (FIG. 8B),significant increases
same,early apoptosis (pSIVA),[6]; relative to M protein cells treated only with vehicle (FIG. 15A),significantly elevated
same,late apoptosis (propidium iodide),[6]; relative to M protein cells treated only with vehicle (FIG. 15B),significantly elevated
same,OAS1 gene expression,"[7]; M protein, 1 μM CBD vs vehicle-treated cells, 24 hours (FIG. 18)",significantly greater expression
same,INF-lambda 1 expression,"[7]; M-protein, 1 μM CBD, 24 hours (FIG. 16A)",induced
same,INF-lambda 2/3 expression,"[7]; M-protein, 1 μM CBD, 24 hours (FIG. 16B)",induced
same,IFIT1 augmentation compared with cells expressing control plasmid,"[7]; M-protein, 1 μM CBD, 24 hours (FIG. 19)",lower
same,Mx1 gene expression,"[7]; M-protein, 1 μM CBD, 24 hours, vs Cannabidiol-treated cells expressing only control plasmid (FIG. 17)",significantly greater extent
same,change in Type I interferons as a result of CBD treatment,Type I interferons,not much change
same,cell death,[8],decreases cell death
same,cell death,normal cells,no effect
same,apoptosis and oxidative stress,HT22 hippocampal neurons,significantly attenuated
same,binding to CB2 receptor,CB2 receptor,very weakly
same,"levels of all cytokines (TNFα, IL-6, IL-4, IL-13, IL-10, IL-5)",[9],reduced significantly

# Reference: patent US20240226120A1 (priority 2020, published 2024)
